In brackets after ≈: the same amount, converted by molar mass. Activity calls are given as the source filed them. The calls are words filed in the database; no cut-off is given here.
What was measured:
[1] = test system: Escherichia coli; experiment: Antibacterial activity against Escherichia coli MB2884; format: functional
[2] = test system: Pseudomonas aeruginosa; experiment: Antibacterial activity against Pseudomonas aeruginosa PAO1 assessed as inhibition of bacterial growth incubated for 24 hrs by microdilution method; format: functional
[3] = test system: Escherichia coli; experiment: Antibacterial activity against Escherichia coli ATCC 25922; format: functional
[4] = test system: Pseudomonas aeruginosa; experiment: Antibacterial activity against Pseudomonas aeruginosa ATCC 27853; format: functional
[5] = Binding affinity to Pseudomonas aeruginosa LpxC assessed as inhibition constant incubated for 18 hrs by fluorescence based assay
[6] = test system: Pseudomonas aeruginosa; experiment: Binding affinity to Pseudomonas aeruginosa LpxC assessed as binding constant (Koff) incubated for 18 hrs by fluorescence based assay
[7] = test system: Pseudomonas aeruginosa; experiment: Binding affinity to Pseudomonas aeruginosa LpxC assessed as residence time incubated for 18 hrs by fluorescence based assay
[8] = test system: Pseudomonas aeruginosa; experiment: Binding affinity to Pseudomonas aeruginosa LpxC assessed as binding constant (kon) incubated for 18 hrs by fluorescence based assay
[9] = test system: Pseudomonas aeruginosa; experiment: Antibacterial activity against Pseudomonas aeruginosa paEP assessed as inhibition of bacterial growth incubated for 24 hrs by microdilution method; format: functional
[10] = test system: Pseudomonas aeruginosa; experiment: Antibacterial activity against Pseudomonas aeruginosa PAO1 assessed as post antibiotic effect by measuring time required for increase in 1 log10 CFU/ml of bacteria at 4X MIC incubated for 1 hr followed by compound washout; format: functional
[11] = test system: Pseudomonas aeruginosa; experiment: Antibacterial activity against Pseudomonas aeruginosa PAO1 assessed as post antibiotic effect by measuring time required for increase in 1 log10 CFU/ml of bacteria at 16X MIC incubated for 1 hr followed by compound washout; format: functional
[12] = test system: Pseudomonas aeruginosa; experiment: Binding affinity to Pseudomonas aeruginosa LpxC assessed as residence time incubated for 18 hrs by spin column assay
[13] = test system: Pseudomonas aeruginosa; experiment: Bactericidal activity against Pseudomonas aeruginosa PAO1 assessed as reduction in 3log 10 CFU/ml at 4 to 16 times MIC incubated for 16 hrs by time-kill assay; format: functional, organism-based
[14] = test system: Pseudomonas aeruginosa; experiment: Antibacterial activity against Pseudomonas aeruginosa PAO1 assessed as post antibiotic effect by measuring time required for increase in 1 log10 CFU/ml of bacteria at 8X MIC incubated for 1 hr followed by compound washout; format: functional

## CCCc1cc(C2=N[C@@H](C(=O)NO)CO2)cc(OC)c1OC
[1]
  MIC: 1 µg/mL (≈ 3.24 µM)

## COc1ccc(-c2ccn(CC[C@](C)(C(=O)NO)S(C)(=O)=O)c(=O)c2)c(F)c1
[2]
  MIC: 0.625 µM (≈ 0.258 µg/mL)

## C[C@@H](O)[C@H](NC(=O)c1ccc(C#Cc2ccc(CN3CCOCC3)cc2)cc1)C(=O)NO
[3]
  MIC: 0.2 µg/mL (≈ 0.457 µM)

## O=C(NO)[C@H](Cc1ccc2ccccc2c1)NS(=O)(=O)c1ccc2ccccc2c1
[4]
  MIC: > 0.25 µg/mL
[3]
  MIC: 1 µg/mL (≈ 2.38 µM)

## COc1ccc(-c2ccc(CNC3(C(=O)NO)CCS(=O)(=O)CC3)cc2F)cc1
[2]
  MIC: 0.8 µM (≈ 0.338 µg/mL)
[5]
  Ki: 14.4 pM
[6]
  K: 0.00049 s⁻¹
[7]
  TIME: 0.572 h
[8]
  K: 3.45e+07 M⁻¹ s⁻¹
[9]
  MIC: 0.1 µM (≈ 0.0422 µg/mL)

## COc1ccc(-c2ccc(CNC3(C(=O)NO)CCS(=O)(=O)CC3)cc2)c(F)c1
[10]
  Time: 1 h
[2]
  MIC: 0.4 µM (≈ 0.169 µg/mL)
[11]
  Time: 1.7 h
[12]
  TIME: 79 h
[5]
  Ki: 37.9 pM
[6]
  K: 0.00053 s⁻¹
[7]
  TIME: 0.533 h
[13]
  Activity: Active
[14]
  Time: 1.3 h
[8]
  K: 1.66e+07 M⁻¹ s⁻¹
[9]
  MIC: 0.03 µM (≈ 0.0127 µg/mL)

## C[C@@H](O)C(NC(=O)c1ccc(-c2cn(Cc3ccccc3)nn2)cc1)C(=O)NO (mixture of isomers)
[2]
  MIC: > 50 µM
[9]
  MIC: > 12.5 µM

## CC(CCn1ccc(-c2ccccc2)cc1=O)(C(=O)NO)S(C)(=O)=O (racemic)
[10]
  Time: 0.7 h
[2]
  MIC: 3.12 µM (≈ 1.14 µg/mL)
[11]
  Time: 1.3 h
[13]
  Activity: Active
[14]
  Time: 1.1 h
[9]
  MIC: 0.2 µM (≈ 0.0729 µg/mL)

## CC(CCn1ccc(-c2ccc(-c3cnnn3Cc3ccccc3)cc2)cc1=O)(C(=O)NO)S(C)(=O)=O (racemic)
[2]
  MIC: 50 µM (≈ 26.1 µg/mL)
[5]
  Ki: 67.7 pM
[6]
  K: 0.00187 s⁻¹
[7]
  TIME: 0.15 h
[8]
  K: 2.78e+07 M⁻¹ s⁻¹
[9]
  MIC: 12.5 µM (≈ 6.52 µg/mL)

## CC(CCn1ccc(-c2ccc(-c3cn(CCO)nn3)cc2)cc1=O)(C(=O)NO)S(C)(=O)=O (racemic)
[2]
  MIC: > 50 µM
[5]
  Ki: 3.7 pM
[6]
  K: 0.00018 s⁻¹
[8]
  K: 5.96e+07 M⁻¹ s⁻¹
[9]
  MIC: > 12.5 µM

## COc1ccc(-c2ccn(CCC(C)(C(=O)NO)S(C)(=O)=O)c(=O)c2)cc1 (racemic)
[2]
  MIC: 3.12 µM (≈ 1.23 µg/mL)
[9]
  MIC: 0.8 µM (≈ 0.316 µg/mL)

## CC(CCn1ccc(-c2ccc(-c3cn(CC45CC(C4)C5)nn3)cc2)cc1=O)(C(=O)NO)S(C)(=O)=O (racemic)
[10]
  Time: 4 h
[2]
  MIC: 12.5 µM (≈ 6.4 µg/mL)
[5]
  Ki: 2.1 pM
[6]
  K: 0.00015 s⁻¹
[8]
  K: 8.52e+07 M⁻¹ s⁻¹
[9]
  MIC: 0.78 µM (≈ 0.399 µg/mL)

## CC(CCn1ccc(-c2ccc(CN3CCOCC3)cc2)cc1=O)(C(=O)NO)S(C)(=O)=O (racemic)
[2]
  MIC: 50 µM (≈ 23.2 µg/mL)
[5]
  Ki: 96.8 pM
[6]
  K: 0.0035 s⁻¹
[7]
  TIME: 0.0783 h
[8]
  K: 3.64e+07 M⁻¹ s⁻¹

## CC(CCn1ccc(-c2ccc(-c3cn(Cc4ccc([N+](=O)[O-])cc4)nn3)cc2)cc1=O)(C(=O)NO)S(C)(=O)=O (racemic)
[2]
  MIC: 6.25 µM (≈ 3.54 µg/mL)
[5]
  Ki: 7 pM
[6]
  K: 0.00021 s⁻¹
[7]
  TIME: 1.31 h
[8]
  K: 3.07e+07 M⁻¹ s⁻¹
[9]
  MIC: 0.1 µM (≈ 0.0567 µg/mL)

## CC1(Cn2cc(-c3ccc(-c4ccn(CCC(C)(C(=O)NO)S(C)(=O)=O)c(=O)c4)cc3)nn2)COC1 (racemic)
[2]
  MIC: 25 µM (≈ 12.9 µg/mL)
[9]
  MIC: 1.56 µM (≈ 0.804 µg/mL)

## CC(CCn1ccc(-c2ccc(-c3cn(CC4CC4)nn3)cc2)cc1=O)(C(=O)NO)S(C)(=O)=O (racemic)
[10]
  Time: 1.6 h
[2]
  MIC: 3.12 µM (≈ 1.52 µg/mL)
[11]
  Time: 3.1 h
[12]
  TIME: 191 h
[5]
  Ki: 10.2 pM
[6]
  K: 0.00025 s⁻¹
[7]
  TIME: 1.11 h
[13]
  Activity: Active
[14]
  Time: 2.2 h
[8]
  K: 2.64e+07 M⁻¹ s⁻¹
[9]
  MIC: 0.4 µM (≈ 0.194 µg/mL)

## CC(CCn1ccc(-c2ccc(-c3cn(Cc4ccc(F)cc4)nn3)cc2)cc1=O)(C(=O)NO)S(C)(=O)=O (racemic)
[10]
  Time: 1.7 h
[2]
  MIC: 1.56 µM (≈ 0.842 µg/mL)
[11]
  Time: 3.5 h
[12]
  TIME: 106 h
[5]
  Ki: 8 pM
[6]
  K: 0.00025 s⁻¹
[7]
  TIME: 1.14 h
[13]
  Activity: Active
[14]
  Time: 2.5 h
[8]
  K: 3.38e+07 M⁻¹ s⁻¹
[9]
  MIC: 0.05 µM (≈ 0.027 µg/mL)

## CC(CCn1ccc(-c2ccc(-c3cn(Cc4cccnc4)nn3)cc2)cc1=O)(C(=O)NO)S(C)(=O)=O (racemic)
[5]
  Ki: 3.2 pM
[6]
  K: 0.00014 s⁻¹
[7]
  TIME: 2.02 h
[8]
  K: 4.28e+07 M⁻¹ s⁻¹

## CC(CCn1ccc(-c2ccc(C(=O)NCc3ccccc3)cc2)cc1=O)(C(=O)NO)S(C)(=O)=O (racemic)
[2]
  MIC: 25 µM (≈ 12.4 µg/mL)
[5]
  Ki: 274 pM
[6]
  K: 0.0021 s⁻¹
[7]
  TIME: 0.133 h
[8]
  K: 2.38e+07 M⁻¹ s⁻¹
[9]
  MIC: 3.12 µM (≈ 1.55 µg/mL)

## CC(CCn1ccc(-c2ccc(-c3cn(Cc4ccccn4)nn3)cc2)cc1=O)(C(=O)NO)S(C)(=O)=O (racemic)
[2]
  MIC: 6.25 µM (≈ 3.27 µg/mL)
[5]
  Ki: 5.5 pM
[8]
  K: 3.72e+07 M⁻¹ s⁻¹
[9]
  MIC: 0.2 µM (≈ 0.105 µg/mL)

## CC(CCn1ccc(-c2ccc(-n3nccn3)cc2)cc1=O)(C(=O)NO)S(C)(=O)=O (racemic)
[10]
  Time: 1.4 h
[2]
  MIC: 1.56 µM (≈ 0.673 µg/mL)
[11]
  Time: 3.4 h
[13]
  Activity: Active
[14]
  Time: 2.2 h
[9]
  MIC: 0.4 µM (≈ 0.173 µg/mL)

## CC(CCn1ccc(-c2ccc(-c3cn(Cc4ccccc4)nn3)cc2)cc1=O)(C(=O)NO)S(C)(=O)=O (racemic)
[2]
  MIC: 12.5 µM (≈ 6.52 µg/mL)
[5]
  Ki: 10.6 pM
[6]
  K: 0.00032 s⁻¹
[7]
  TIME: 0.955 h
[8]
  K: 4.38e+07 M⁻¹ s⁻¹
[9]
  MIC: 0.78 µM (≈ 0.407 µg/mL)

## CC(CCn1ccc(-c2ccc(-c3cn(CC4CCCCC4)nn3)cc2)cc1=O)(C(=O)NO)S(C)(=O)=O (racemic)
[2]
  MIC: 50 µM (≈ 26.4 µg/mL)
[5]
  Ki: 5.5 pM
[6]
  K: 0.00017 s⁻¹
[7]
  TIME: 1.67 h
[8]
  K: 3.1e+07 M⁻¹ s⁻¹
[9]
  MIC: 3.12 µM (≈ 1.65 µg/mL)

## CC(CCn1ccc(-c2ccc(-c3cn(Cc4ccncc4)nn3)cc2)cc1=O)(C(=O)NO)S(C)(=O)=O (racemic)
[2]
  MIC: 50 µM (≈ 26.1 µg/mL)
[9]
  MIC: 6.25 µM (≈ 3.27 µg/mL)

## CC(CCn1ccc(-c2ccc(NC(=O)Cc3ccccc3)cc2)cc1=O)(C(=O)NO)S(C)(=O)=O (racemic)
[2]
  MIC: 50 µM (≈ 24.9 µg/mL)
[5]
  Ki: 95.4 pM
[6]
  K: 0.0043 s⁻¹
[7]
  TIME: 0.0667 h
[8]
  K: 4.48e+07 M⁻¹ s⁻¹
[9]
  MIC: 3.12 µM (≈ 1.55 µg/mL)

## CC(CCn1ccc(-c2ccc(-c3cn(Cc4ccncn4)nn3)cc2)cc1=O)(C(=O)NO)S(C)(=O)=O (racemic)
[2]
  MIC: 50 µM (≈ 26.2 µg/mL)
[5]
  Ki: 4.2 pM
[6]
  K: 0.00017 s⁻¹
[7]
  TIME: 1.71 h
[8]
  K: 4.43e+07 M⁻¹ s⁻¹
[9]
  MIC: 3.12 µM (≈ 1.64 µg/mL)

## C=CCn1cc(-c2ccc(-c3ccn(CCC(C)(C(=O)NO)S(C)(=O)=O)c(=O)c3)cc2)nn1 (racemic)
[2]
  MIC: 12.5 µM (≈ 5.89 µg/mL)
[12]
  TIME: 146 h
[5]
  Ki: 6.1 pM
[6]
  K: 0.00022 s⁻¹
[7]
  TIME: 1.38 h
[8]
  K: 5.2e+07 M⁻¹ s⁻¹
[9]
  MIC: 0.78 µM (≈ 0.368 µg/mL)

## CC(C)(N)[C@H](NC(=O)c1ccc(C#CC#C[C@@H]2C[C@H]2CO)cc1)C(=O)NO [ACHN-975]
[4]
  MIC: 0.25 µg/mL (≈ 0.677 µM)
[3]
  MIC: 0.125 µg/mL (≈ 0.338 µM)

— ChEMBL document CHEMBL5126627, “Structure-Kinetic Relationship Studies for the Development of Long Residence Time LpxC Inhibitors” (J Med Chem, 2022)
